From PubChem BioAssay (NCI)
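Interpolation was linear, between the two tested concentrations surrounding the appropriate level; five concentrations were tested over 48 hours in 96-well plates. GI50 is the concentration that inhibits growth by half. TGI marks complete inhibition of growth.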

Tests used:
Test in all cases: inhibition of tumour cell growth, NCI panel, 48 h
SF-539 CNS = test system: SF-539 CNS
SR leukemia = test system: SR leukemia
CAKI-1 renal = test system: CAKI-1 renal
SW-620 colon = test system: SW-620 colon
EKVX NSCLC = test system: EKVX NSCLC
HL-60(TB) leukemia = test system: HL-60(TB) leukemia
A549 NSCLC = test system: A549 NSCLC
OVCAR-5 ovarian = test system: OVCAR-5 ovarian
RPMI-8226 leukemia = test system: RPMI-8226 leukemia
UO-31 renal = test system: UO-31 renal
MOLT-4 leukemia = test system: MOLT-4 leukemia
OVCAR-3 ovarian = test system: OVCAR-3 ovarian
NCI-H23 lung = test system: NCI-H23 lung
SK-OV-3 ovarian = test system: SK-OV-3 ovarian
T-47D breast = test system: T-47D breast
HT29 colon = test system: HT29 colon
786-0 renal = test system: 786-0 renal
U251 CNS = test system: U251 CNS
IGROV1 ovarian = test system: IGROV1 ovarian
COLO 205 colon = test system: COLO 205 colon
SK-MEL-5 melanoma = test system: SK-MEL-5 melanoma
DU-145 prostate = test system: DU-145 prostate
SK-MEL-2 melanoma = test system: SK-MEL-2 melanoma
MCF7 breast = test system: MCF7 breast
SF-268 CNS = test system: SF-268 CNS
KM12 colon = test system: KM12 colon
OVCAR-8 ovarian = test system: OVCAR-8 ovarian
TK-10 renal = test system: TK-10 renal
SNB-75 CNS = test system: SNB-75 CNS
HCC-2998 colon = test system: HCC-2998 colon
M14 melanoma = test system: M14 melanoma
ACHN renal = test system: ACHN renal
LOX IMVI melanoma = test system: LOX IMVI melanoma
NCI-H522 lung = test system: NCI-H522 lung
UACC-62 melanoma = test system: UACC-62 melanoma
HOP-62 NSCLC = test system: HOP-62 NSCLC
NCI/ADR-RES ovarian = test system: NCI/ADR-RES ovarian
SN12C renal = test system: SN12C renal
A498 renal = test system: A498 renal
CCRF-CEM leukemia = test system: CCRF-CEM leukemia
HOP-92 NSCLC = test system: HOP-92 NSCLC
SF-295 CNS = test system: SF-295 CNS
NCI-H460 lung = test system: NCI-H460 lung
NCI-H226 lung = test system: NCI-H226 lung
MDA-MB-435 = test system: MDA-MB-435
BT-549 breast = test system: BT-549 breast
HS 578T breast = test system: HS 578T breast
K-562 leukemia = test system: K-562 leukemia
HCT-15 colon = test system: HCT-15 colon
PC-3 prostate = test system: PC-3 prostate
SNB-19 CNS = test system: SNB-19 CNS
UACC-257 melanoma = test system: UACC-257 melanoma
HCT-116 colon = test system: HCT-116 colon
SK-MEL-28 melanoma = test system: SK-MEL-28 melanoma
RXF 393 renal = test system: RXF 393 renal
MDA-MB-231 breast = test system: MDA-MB-231 breast

**Q.** With `CN(C)CCCNc1nc2ccccc2c2[nH]c3ccccc3c12` as the compound, how does the GI50 (SF-539 CNS) read?
**A.** 654 nM

**Q.** And the TGI (SF-539 CNS)?
**A.** 1900 nM

**Q.** What about the GI50 (SR leukemia) of the same compound?
**A.** 616 nM

**Q.** And the TGI (SR leukemia)?
**A.** 50 µM

**Q.** What about the GI50 (CAKI-1 renal) of the same compound?
**A.** 1090 nM

**Q.** What about the TGI (CAKI-1 renal) of the same compound?
**A.** 3.01 µM

**Q.** And the GI50 (SW-620 colon)?
**A.** 387 nM

**Q.** What about the TGI (SW-620 colon) of the same compound?
**A.** 7.21 µM

**Q.** And the GI50 (EKVX NSCLC)?
**A.** 1380 nM

**Q.** What about the TGI (EKVX NSCLC) of the same compound?
**A.** 4.75 µM

**Q.** And the GI50 (HL-60(TB) leukemia)?
**A.** 1050 nM

**Q.** And the TGI (HL-60(TB) leukemia)?
**A.** 2490 nM

**Q.** And the GI50 (A549 NSCLC)?
**A.** 402 nM

**Q.** What about the TGI (A549 NSCLC) of the same compound?
**A.** 8.18 µM

**Q.** What about the GI50 (OVCAR-5 ovarian) of the same compound?
**A.** 1280 nM

**Q.** What about the TGI (OVCAR-5 ovarian) of the same compound?
**A.** 9.36 µM

**Q.** What about the GI50 (RPMI-8226 leukemia) of the same compound?
**A.** 811 nM

**Q.** And the TGI (RPMI-8226 leukemia)?
**A.** 1950 nM

**Q.** What about the GI50 (UO-31 renal) of the same compound?
**A.** 1690 nM

**Q.** What about the TGI (UO-31 renal) of the same compound?
**A.** 10.9 µM

**Q.** And the GI50 (MOLT-4 leukemia)?
**A.** 276 nM

**Q.** What about the TGI (MOLT-4 leukemia) of the same compound?
**A.** 50 µM

**Q.** What about the GI50 (OVCAR-3 ovarian) of the same compound?
**A.** 660 nM

**Q.** What about the TGI (OVCAR-3 ovarian) of the same compound?
**A.** 2230 nM

**Q.** What about the GI50 (NCI-H23 lung) of the same compound?
**A.** 752 nM

**Q.** And the TGI (NCI-H23 lung)?
**A.** 1640 nM

**Q.** And the GI50 (SK-OV-3 ovarian)?
**A.** 1490 nM

**Q.** And the TGI (SK-OV-3 ovarian)?
**A.** 6.11 µM

**Q.** And the GI50 (T-47D breast)?
**A.** 5.18 µM

**Q.** What about the TGI (T-47D breast) of the same compound?
**A.** 16.5 µM

**Q.** What about the GI50 (HT29 colon) of the same compound?
**A.** 163 nM

**Q.** And the TGI (HT29 colon)?
**A.** 33 µM

**Q.** And the GI50 (786-0 renal)?
**A.** 958 nM

**Q.** What about the TGI (786-0 renal) of the same compound?
**A.** 5.2 µM

**Q.** And the GI50 (U251 CNS)?
**A.** 679 nM

**Q.** What about the TGI (U251 CNS) of the same compound?
**A.** 2590 nM

**Q.** And the GI50 (IGROV1 ovarian)?
**A.** 1390 nM

**Q.** And the TGI (IGROV1 ovarian)?
**A.** 18.4 µM

**Q.** And the GI50 (COLO 205 colon)?
**A.** 795 nM

**Q.** And the TGI (COLO 205 colon)?
**A.** 10.1 µM

**Q.** And the GI50 (SK-MEL-5 melanoma)?
**A.** 3.02 µM

**Q.** What about the TGI (SK-MEL-5 melanoma) of the same compound?
**A.** 8.33 µM

**Q.** And the GI50 (DU-145 prostate)?
**A.** 720 nM

**Q.** What about the TGI (DU-145 prostate) of the same compound?
**A.** 4.36 µM

**Q.** And the GI50 (SK-MEL-2 melanoma)?
**A.** 6.69 µM

**Q.** What about the TGI (SK-MEL-2 melanoma) of the same compound?
**A.** 38.8 µM

**Q.** What about the GI50 (MCF7 breast) of the same compound?
**A.** 417 nM

**Q.** And the TGI (MCF7 breast)?
**A.** 1810 nM

**Q.** What about the GI50 (SF-268 CNS) of the same compound?
**A.** 1390 nM

**Q.** What about the TGI (SF-268 CNS) of the same compound?
**A.** 4.1 µM

**Q.** And the GI50 (KM12 colon)?
**A.** 721 nM

**Q.** What about the TGI (KM12 colon) of the same compound?
**A.** 2280 nM

**Q.** What about the GI50 (OVCAR-8 ovarian) of the same compound?
**A.** 917 nM

**Q.** And the TGI (OVCAR-8 ovarian)?
**A.** 6.65 µM

**Q.** And the GI50 (TK-10 renal)?
**A.** 1450 nM

**Q.** And the TGI (TK-10 renal)?
**A.** 4.04 µM

**Q.** And the GI50 (SNB-75 CNS)?
**A.** 1160 nM

**Q.** And the TGI (SNB-75 CNS)?
**A.** 3.78 µM

**Q.** And the GI50 (HCC-2998 colon)?
**A.** 251 nM

**Q.** What about the TGI (HCC-2998 colon) of the same compound?
**A.** 942 nM

**Q.** What about the GI50 (M14 melanoma) of the same compound?
**A.** 1110 nM

**Q.** And the TGI (M14 melanoma)?
**A.** 2460 nM

**Q.** And the GI50 (ACHN renal)?
**A.** 703 nM

**Q.** And the TGI (ACHN renal)?
**A.** 2240 nM

**Q.** What about the GI50 (LOX IMVI melanoma) of the same compound?
**A.** 750 nM

**Q.** And the TGI (LOX IMVI melanoma)?
**A.** 1640 nM

**Q.** What about the GI50 (NCI-H522 lung) of the same compound?
**A.** 1320 nM

**Q.** And the TGI (NCI-H522 lung)?
**A.** 11.1 µM

**Q.** And the GI50 (UACC-62 melanoma)?
**A.** 4.01 µM

**Q.** And the TGI (UACC-62 melanoma)?
**A.** 11.9 µM

**Q.** And the GI50 (HOP-62 NSCLC)?
**A.** 497 nM

**Q.** And the TGI (HOP-62 NSCLC)?
**A.** 3.77 µM

**Q.** What about the GI50 (NCI/ADR-RES ovarian) of the same compound?
**A.** 769 nM

**Q.** What about the TGI (NCI/ADR-RES ovarian) of the same compound?
**A.** 4.08 µM

**Q.** What about the GI50 (SN12C renal) of the same compound?
**A.** 639 nM

**Q.** And the TGI (SN12C renal)?
**A.** 2260 nM

**Q.** And the GI50 (A498 renal)?
**A.** 6.42 µM

**Q.** And the TGI (A498 renal)?
**A.** 13.4 µM

**Q.** And the GI50 (CCRF-CEM leukemia)?
**A.** 206 nM

**Q.** And the TGI (CCRF-CEM leukemia)?
**A.** 1380 nM

**Q.** What about the GI50 (HOP-92 NSCLC) of the same compound?
**A.** 1260 nM

**Q.** What about the TGI (HOP-92 NSCLC) of the same compound?
**A.** 3.83 µM

**Q.** What about the GI50 (SF-295 CNS) of the same compound?
**A.** 972 nM

**Q.** And the TGI (SF-295 CNS)?
**A.** 3.11 µM

**Q.** And the GI50 (NCI-H460 lung)?
**A.** 737 nM

**Q.** And the TGI (NCI-H460 lung)?
**A.** 3.28 µM

**Q.** And the GI50 (NCI-H226 lung)?
**A.** 1260 nM

**Q.** What about the TGI (NCI-H226 lung) of the same compound?
**A.** 4.22 µM

**Q.** And the GI50 (MDA-MB-435)?
**A.** 1280 nM

**Q.** And the TGI (MDA-MB-435)?
**A.** 3.89 µM

**Q.** And the GI50 (BT-549 breast)?
**A.** 1860 nM

**Q.** What about the TGI (BT-549 breast) of the same compound?
**A.** 5.35 µM

**Q.** What about the GI50 (HS 578T breast) of the same compound?
**A.** 3.04 µM

**Q.** And the TGI (HS 578T breast)?
**A.** 9.61 µM

**Q.** What about the GI50 (K-562 leukemia) of the same compound?
**A.** 1640 nM

**Q.** And the TGI (K-562 leukemia)?
**A.** 22.2 µM

**Q.** What about the GI50 (HCT-15 colon) of the same compound?
**A.** 266 nM

**Q.** What about the TGI (HCT-15 colon) of the same compound?
**A.** 4.31 µM

**Q.** What about the GI50 (PC-3 prostate) of the same compound?
**A.** 897 nM

**Q.** What about the TGI (PC-3 prostate) of the same compound?
**A.** 2970 nM

**Q.** What about the GI50 (SNB-19 CNS) of the same compound?
**A.** 1570 nM

**Q.** What about the TGI (SNB-19 CNS) of the same compound?
**A.** 6.2 µM

**Q.** What about the GI50 (UACC-257 melanoma) of the same compound?
**A.** 3.48 µM

**Q.** What about the TGI (UACC-257 melanoma) of the same compound?
**A.** 14.7 µM

**Q.** And the GI50 (HCT-116 colon)?
**A.** 222 nM

**Q.** What about the TGI (HCT-116 colon) of the same compound?
**A.** 1670 nM

**Q.** What about the GI50 (SK-MEL-28 melanoma) of the same compound?
**A.** 2040 nM

**Q.** What about the TGI (SK-MEL-28 melanoma) of the same compound?
**A.** 5.84 µM

**Q.** What about the GI50 (RXF 393 renal) of the same compound?
**A.** 1230 nM

**Q.** What about the TGI (RXF 393 renal) of the same compound?
**A.** 3.55 µM

**Q.** And the GI50 (MDA-MB-231 breast)?
**A.** 907 nM

**Q.** And the TGI (MDA-MB-231 breast)?
**A.** 2160 nM
